Among the data in PubChem BioAssay AID179 (DTP/NCI, 2004) are EC50, IC50 and outcome values, retold here.

The source made the active and inactive calls.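 The calls were made as follows: active = compounds giving half or more protection of infected cells from virus-caused growth loss, again on retest; inactive = the rest.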 Where a SMILES comes first, the peptide text is derived from it. The star is where a group is joined. Boc = CC(C)(C)OC(=O)*

The assay relates to CEM cells HIV-1 protection, formazan growth assay. Briefly: NCI AIDS Antiviral Assay. To be noted: for IC50: measured here: growth of uninfected CEM cells. In outline:
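Soluble formazan readout of cell growth; CEM cells ± HIV-1; 5 drug concs. ≥50% protection → retest; ≥50% again = moderately active; reproducible 100% = confirmed active.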

Take `C(=N\Nc1ccc2ccccc2n1)/c1ccccn1.CC(=O)[O-].CC(=O)[O-].[Zn+2]`: the EC50 is more than 200 µM and the IC50 was found to be 1.05 µM. In the case of `O=C(O)CNS(=O)(=O)c1ccc(NC(=O)c2ccccc2[N+](=O)[O-])cc1`, the result was inactive. On to `CCN(CC)Cc1cc(Nc2c3ccccc3nc3c2[nH]c2ccccc23)cc(CN(CC)CC)c1O`, for which the EC50 is more than 427 µM and the IC50 is 0.269 µM. On to `COC1(OC)C2(Cl)C(Cl)=C(Cl)C1(Cl)C1C=CC=CC12` (configuration not stated), for which the outcome was inactive. Take `Clc1ccc(CN2COc3c(ccc4ccccc34)C2)cc1Cl`: the EC50 was more than 200 µM and the IC50 was found to be 31.6 µM. On the same counts, the results for `CCc1c(-c2ccccc2)[nH]c(=S)c(C#N)c1C` are more than 200 µM and more than 200 µM.

For the compound `C1CC[C@H]2SSC3CCCC[C@H]3SSC2C1` (some centres not stated), the EC50 is more than 17.8 µM and the IC50 is more than 17.8 µM. Turning to `CCNC(=O)C(O)C1(O)CCC2[C@@H]3CCC4=CC(=O)C=C[C@]4(C)C3[C@@H](O)C[C@@]21C` (some centres not stated), the result was inactive. As for `CCOC(=O)c1cc2c3c(cc(OC)c2[nH]1)N(C(=O)OCC)CC3`, the EC50 is more than 100 µM and the IC50 is more than 100 µM. Turning to `O=C1c2cscc2C(=O)c2cscc21`, the EC50 is more than 2 µM and the half-inhibitory concentration (IC50) was determined as 0.339 µM. With `O=C1CC(=O)NC(=NN2C(=O)/C(=C/c3ccccc3)N=C2c2ccccc2)N1`, the EC50 was more than 200 µM and the IC50 was more than 200 µM. For the compound `CCOC(=O)NC(=O)c1cn(CCN2CCNCC2)c(=O)[nH]c1=O`, the result was inactive.

For the compound `COc1cccc2c1OC(c1cccc3ccccc13)C([N+](=O)[O-])=C2` (configuration not stated), the EC50 was more than 2 µM and the IC50 is 1.07 µM.

As to `COc1cc2c3c(c1OC)-c1ccccc1C(C(OC(C)=O)c1ccccc1)C3N(C)CC2` (configuration not stated), the result was inactive.

As for `COc1ccc(C)c2c1N[C@](C)([C@]1(C)Nc3c(OC)ccc(C)c3C1=O)C2=O`, the EC50 was more than 100 µM and the IC50 was more than 100 µM. For `Cc1[nH]c(=O)[nH]c(=O)c1/C=C/C(=O)NC(CO)CS(=O)Cc1ccccc1` (configuration not stated), the EC50 was more than 200 µM and the IC50 was more than 200 µM. Consider `O=C(/C=C/c1cccc(Cl)c1)c1ccccc1`, for which the EC50 is more than 11.2 µM and the IC50 is more than 11.2 µM. For `O=[N+]([O-])c1cccc2nccc(NCC(O)CO)c12` (configuration not stated), the EC50 was more than 200 µM and the IC50 amounted to 6.17 µM. `CCN(CC)C1=Nc2ccccc2-n2c(C)cnc2C1`: the EC50 is more than 200 µM and the IC50 is more than 200 µM. Consider `CCOC(=O)/C(=C\c1cccc(F)c1)C(C)=O`, for which the EC50 is more than 398 µM and the IC50 turned out to be 182 µM. With `Cc1ccc(-c2cc(-c3ccco3)c(C#N)c(=S)[nH]2)cc1`, the EC50 is more than 200 µM and the IC50 was determined as 120 µM. Consider `c1ccc(P(=C2c3ccccc3-c3ccccc32)(c2ccccc2)c2ccccc2)cc1`, for which the result was inactive. As for `CS(=O)(=O)N(CCC#N)c1ccc(/C=N/NC(=O)CC(=O)Nc2cccc(Cl)c2)cc1`, the EC50 is more than 204 µM and the IC50 is more than 204 µM. Take `Cc1ccccc1OP(=S)(Oc1ccccc1C)Oc1ccccc1C`: the EC50 was more than 200 µM and the IC50 was 35.5 µM. Take `Cc1ccc(C)c(NC(=O)CC/C(=N\NC(=O)C(=O)NN)C(C)C(=O)c2ccc(O)cc2)c1` (configuration not stated): the outcome was inactive.

`O=C1CSC(c2ccc([N+](=O)[O-])cc2)N1c1nc(-c2ccc3c(c2)CCCC3)cs1` (configuration not stated): the EC50 was 155 µM and the IC50 was 263 µM. Turning to `CC(C)(C)OC(=O)NC(Cc1ccccc1)C(=O)N1CCCC1C(N)=O` (stereo not drawn) (Boc-Phe-Pro-NH2; configuration not given here), the EC50 is more than 200 µM and the IC50 is more than 200 µM. For `O=[N+]([O-])c1cccc(C2=NOC(C3CCCCC3)C2)c1` (configuration not stated), the EC50 was more than 36.3 µM and the IC50 is more than 36.3 µM. For the compound `COC(=O)C1=C(C(=O)OC)C2OC1C1C2C2(C)C(C)=C(C)C1(C)S2=O` (configuration not stated), the EC50 is more than 200 µM and the IC50 was found to be 2.82 µM. `CSc1cc(-c2ccccn2)nc(-c2ccccn2)c1.CSc1cc(-c2ccccn2)nc(-c2ccccn2)c1.[Co+2].[O-][Cl+3]([O-])([O-])[O-]`: the EC50 was more than 200 µM and the IC50 turned out to be 0.12 µM.

With `CC1COC(C)(C)P(=O)(c2ccccc2)C1` (configuration not stated), the EC50 was more than 1050 µM and the IC50 is more than 1050 µM. In the case of `COC(=O)c1ccc(N=Cc2ccc(C=Nc3ccc(C(=O)OC)cc3)cc2)cc1`, the EC50 is more than 12.9 µM and the IC50 is more than 12.9 µM. Regarding `CC(=O)Oc1ccc(/C=C/C(=O)OCCOC(=O)/C=C/c2ccc(OC(C)=O)c(OC(C)=O)c2)cc1OC(C)=O`, the EC50 was more than 20 µM and the IC50 was found to be 8.71 µM. `CCC(CCl)NC(=O)Nc1ccc(S(=O)(=O)c2ccc([N+](=O)[O-])cc2)cc1` (configuration not stated): the EC50 was more than 11 µM and the IC50 was 8.71 µM. On the same counts, the results for `O=c1c2cccnc2n2n1Cc1ccccc1C2` are more than 200 µM and 151 µM. In the case of `CCCCC(CC)CO[Si](OCC(CC)CCCC)(OCC(CC)CCCC)OCC(CC)CCCC` (configuration not stated), the result was inactive. `OC1(C(Sc2ccccc2)Sc2ccccc2)CCCCCC1`: the result was inactive. In the case of `O=c1[nH]c2ccc(Cl)cc2c2oc(-c3ccccc3)nc12`, the result was inactive. `COc1ccc2[nH]c3c(C)c4ccnc(NCCCN(C)CCCN)c4c(C)c3c2c1`: the EC50 is more than 1 µM and the half-inhibitory concentration (IC50) is 0.38 µM. On the same counts, the results for `COc1onc(C)c1CC(=O)O` are more than 200 µM and more than 200 µM.

Consider `O=C(CBr)OCCCS(=O)(=O)O`, for which the EC50 was more than 200 µM and the IC50 is more than 200 µM. For `C[C@]12CC[C@H](O)CC1=CC[C@@H]1C2CC[C@]2(C)Nc3c(cnn3-c3ccccc3)CC12` (some centres not stated), the result was inactive.

For `N#CCCCCCOCCOCCOCCOCCOCCCCCC#N`, the outcome was inactive. With `Cc1cc(C)nc(NS(=O)(=O)c2ccc(NC(=O)c3ccc4nc5ccccc5c(Nc5ccc(S(N)(=O)=O)cc5)c4c3)cc2)n1`, the EC50 is more than 200 µM and the IC50 worked out at 39.8 µM. Take `COC[C@@H](N=CN1CCc2ccccc2C1)c1ccccc1`: the EC50 is more than 324 µM and the IC50 was more than 324 µM. `CC1=C(C)CC(C#N)(C#N)C(C#N)(C#N)C1`: the EC50 is more than 200 µM and the IC50 is 19.1 µM. `CN=C1SC(=Nc2ccc(N(C)C)cc2)N1C`: the result was inactive. As to `O=C1Cc2ccccc2N1/N=C\c1ccc([N+](=O)[O-])cc1`, the EC50 was more than 67.6 µM and the IC50 was more than 67.6 µM.

For the compound `COC(=O)C(=O)C(C(=O)C=C(C)C)C(=O)C(=O)Nc1ccc(C)cc1C` (configuration not stated), the EC50 is more than 100 µM and the IC50 was more than 100 µM. As to `CC(=O)OCC1OC(n2cc([N+](=O)[O-])c(=O)[nH]c2=O)C(OC(C)=O)C(OC(C)=O)C1OC(C)=O` (configuration not stated), the EC50 was more than 513 µM and the IC50 was more than 513 µM. In the case of `CSc1snc2sc3c(Cl)nnnc3c12`, the outcome was inactive. `CCOC(=O)c1[nH]cc(C)c1-c1ccn(-c2ccccc2)c1`: the EC50 was more than 200 µM and the IC50 came to 45.7 µM. On the same counts, the results for `CON(C)c1nc(Cl)nc(Cl)n1` are more than 200 µM and more than 200 µM. In the case of `CC(C)N1CCC2(CC1)NNc1ncccc1-n1cccc12`, the EC50 was more than 676 µM and the IC50 was found to be 355 µM.

Take `Oc1ccc(O)c2c1N=NC21c2ccccc2Oc2ccccc21`: the EC50 was more than 112 µM and the IC50 was determined as 33.1 µM.

Turning to `C[C@]12CC[C@H](CC=C(c3cc(Cl)c(O)c(C(=O)O)c3)c3cc(Cl)c(O)c(C(=O)O)c3)C[C@@H]1CC[C@@H]1[C@@H]2CC[C@]2(C)[C@@H](CC=C(c3cc(Cl)c(O)c(C(=O)O)c3)c3cc(Cl)c(O)c(C(=O)O)c3)CC[C@@H]12`, the EC50 was 28.8 µM and the IC50 was 45.7 µM. Regarding `O=C1C=CC2CCC1C2` (configuration not stated), the result was inactive. Turning to `Nc1c(Br)cc(-c2cc(Br)c(N)c(Br)c2)cc1Br`, the EC50 was more than 200 µM and the IC50 was 138 µM. With `CC(C)(C)c1cc(/C=C2\CCC/C(=C\c3cc(C(C)(C)C)c(O)c(C(C)(C)C)c3)C2=O)cc(C(C)(C)C)c1O`, the EC50 was more than 200 µM and the IC50 was more than 200 µM.

`CCC[CH2][Sn]1([CH2]CCC)[O]C(=O)c2cccc(C)c2[O]1`: the outcome was inactive. `COc1ccc(C2Oc3c(cccc3OC)C=C2[N+](=O)[O-])cc1OC` (configuration not stated): the EC50 is more than 200 µM and the IC50 came to 1.2 µM.

Take `O=C(/C=C1/NC(=O)CS1)Nc1ccccc1`: the EC50 was more than 380 µM and the IC50 came to 182 µM. With `COC(=O)c1c2c(cc3c1CC1(Cc4cc5c(c(C(C)=O)c4C1)CCCC5)C3)CCCC2` (configuration not stated), the EC50 was more than 200 µM and the IC50 is more than 200 µM. With `CN1CCN(CCCN2c3ccccc3Sc3ccccc32)CC1`, the EC50 was more than 741 µM and the IC50 was found to be 33.1 µM. For `COc1cc2c(cc1OC)C1CC(OC(=O)c3ccccc3)(c3nccc4cc(OC)c(OC)cc34)CCN1CC2` (configuration not stated), the result was inactive. For the compound `C/C1=C/C2OC(=O)C3(C)C2C(CC2(C)OC1=CC2=O)OC3(O)C(C)C` (configuration not stated), the EC50 is more than 102 µM and the IC50 was 10.5 µM. For the compound `CC(CO)/[N+]([O-])=N/O` (configuration not stated), the EC50 is more than 479 µM. With `N#C/C(=C\c1ccc(-c2ccccc2)cc1)c1ccc([N+](=O)[O-])cc1`, the EC50 is more than 200 µM and the IC50 is more than 200 µM.

On to `CC(C)(C)OC(=O)N1CCCC1=O`, for which the EC50 was more than 200 µM and the IC50 is more than 200 µM. In the case of `Cc1ccc(C2SC(N)=Nc3c2c(C)nn3C(=O)c2ccc(Cl)cc2)cc1` (configuration not stated), the result was inactive. For the compound `O=C1c2ccccc2C(=O)N1/N=C\c1ccc([N+](=O)[O-])cc1`, the EC50 was more than 24.5 µM and the IC50 was more than 24.5 µM. Regarding `CC1=NN(C(=O)c2ccccc2O)C(=O)/C1=C/c1ccccc1O`, the EC50 is more than 30.9 µM and the IC50 was determined as 0.0617 µM. The matching figures for `COc1ccc(-c2nc(-c3ccc(OC)cc3)n(-c3ccccc3)n2)cc1`: more than 200 µM and 58.9 µM.
